Earlier results on one compound are cited in US20110142971A1, “USE OF AN ONION EXTRACT FOR MAKING A COMPOSITION TO CONTROL WEIGHT GAIN” (priority 2005, published 2011).

The conditions of data set [1]: in vivo.
A further data set concerns the target T1, pancreatic lipase (Homo sapiens, UniProt P16233).
T1 construct: host or cells: human subjects (in vivo, digestive tract)
T1 sequence (P16233 17-465): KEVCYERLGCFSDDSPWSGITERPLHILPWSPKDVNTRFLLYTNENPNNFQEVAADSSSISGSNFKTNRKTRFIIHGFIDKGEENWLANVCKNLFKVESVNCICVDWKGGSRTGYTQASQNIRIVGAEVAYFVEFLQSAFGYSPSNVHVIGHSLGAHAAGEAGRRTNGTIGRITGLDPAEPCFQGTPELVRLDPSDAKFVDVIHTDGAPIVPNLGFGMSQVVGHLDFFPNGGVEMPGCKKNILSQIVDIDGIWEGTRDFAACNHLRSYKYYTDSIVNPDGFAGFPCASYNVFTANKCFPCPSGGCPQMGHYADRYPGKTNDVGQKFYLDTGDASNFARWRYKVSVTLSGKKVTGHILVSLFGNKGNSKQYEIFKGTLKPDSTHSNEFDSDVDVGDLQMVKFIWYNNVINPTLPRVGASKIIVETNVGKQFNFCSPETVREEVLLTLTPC
The settings on record: human species.

`CCCCCCCCCCC[C@@H](C[C@@H]1OC(=O)[C@H]1CCCCCC)OC(=O)[C@H](CC(C)C)NC=O` [tetrahydrolipstatin, [2S-[2-α(R),3β]]-N-formyl-L-leucine 1-[(3-hexyl-4-oxo-2-oxetanyl)methyl]dodecyl ester]: the Side effects entry in data set [1] is “steatorrhoea, anal exudation, abdominal pains, nausea and vomiting, or fat-soluble vitamin absorption reduction”. For the same compound, the “Average reduction of the lipids contained in food” value at pancreatic lipase is “about one third”.
